Experimental findings from paper PMC9054821, “Molecular basis of antibiotic self-resistance in a bee larvae pathogen” (Nature Communications, 2022) are described below.

The target in the assay is T1, PamZ (Paenibacillus larvae, UniProt V9W634).
T1 construct: gene ERIC2_c18030; full length, 275 residues; pET28a(+) N-terminal His6-tag with TEV site, tag cut; E. coli BL21-Gold(DE3); monomer
As to the kind of experiment: X-ray crystal structure. It is filed as binding. The following applies: 1.34 Å; co-substrate bound to the C-terminal GNAT domain only; crystals at pH 4.6, 293 K.

T1 sequence (V9W634 entry or part of it): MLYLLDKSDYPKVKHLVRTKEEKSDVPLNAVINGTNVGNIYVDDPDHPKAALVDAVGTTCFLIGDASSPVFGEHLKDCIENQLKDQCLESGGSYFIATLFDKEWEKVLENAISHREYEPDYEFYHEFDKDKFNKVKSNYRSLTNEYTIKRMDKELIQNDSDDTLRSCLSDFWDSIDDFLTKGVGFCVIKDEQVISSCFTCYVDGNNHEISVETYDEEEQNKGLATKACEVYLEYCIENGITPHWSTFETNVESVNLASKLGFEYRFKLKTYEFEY

Take `CC(=O)SCCNC(=O)CCNC(=O)[C@H](O)C(C)(C)COP(=O)(O)OP(=O)(O)OC[C@H]1O[C@@H](n2cnc3c(N)ncnc32)[C@H](O)[C@@H]1OP(=O)(O)O` [acetyl-CoA]: the X-ray crystal structure entry was “We solved the crystal structure of PamZ in complex with acetyl-CoA”.
